Reference: patent publication US10092515B2, “Liposomal formulations of polymyxin B and uses thereof” (University of Houston System, priority 2012, dated 2018)
Read-outs that look alike come from different tables or passages of the source. Where a SMILES comes first, the peptide text is derived from it. Bridges are numbered along the chain shown (N, C = ends). [ ]: non-standard residue; d: D form. The star is where a group is joined. Heptanoyl(6-Me) = CC(C)CCCCC(=O)*; X1 = CC[C@H](C)CCCCC(=O)*; Octanoyl = CCCCCCCC(=O)*; Dab = NCC[C@H](N)C(=O)O

How the values were obtained:
[1] = Kidney exposure after IV polymyxin liposome or solution (USP); assay type: in vivo, mice; settings: for AUC(0-t) / AUC0-6 h, kidney: female, ND4 Swiss Webster
[2] = Serum pharmacokinetics after intravenous polymyxin B liposomes or aqueous solution (USP); assay type: in vivo, Swiss Webster mice; settings: for AUC(0-t): n = 4, normalized by dose, read-out: AUC0-6 h
Experimental: (§1) The animal protocol was approved by the University of Houston Institutional Animal Care and Use Committee. The animals received food and water ad libitum. Two groups of 24 female ND4 Swiss Webster mice (20-23 g, Harlan Laboratory, Indianapolis, Ind.) were intravenously administrated PB liposomes and aqueous solution (USP), respectively, at approximately 3 mg/kg through the tail vein. At each time point (0.1, 0.5, 1, 2, 4 and 6 h post-dose), four mice were sacrificed for blood and epithelial lining fluid sample collection. The blood samples were clotted on crushed ice and the serum was obtained by centrifugation. The epithelial lining fluid samples were obtained by bronchoalveolar lavage. All the serum and epithelial lining fluid samples were stored at −80° C. until analysis.
(§2) Four major polymyxin B components in serum and epithelial lining fluid samples were assayed by a validated UPLC-MS/MS method. An Acquity UPLC HSS C18 column was used with 0.1% formic acid/acetonitrile as mobile phases. Analysis was performed in positive ionization mode with multiple reactions monitoring (MRM) scan type. Briefly, the serum and epithelial lining fluid samples (200 μl) were spiked with 20 μl of carbutamide (internal standard). Two hundred μl of 5% trichloroacetic acid was added to precipitate the proteins, followed by 1 min of vortexing. After centrifugation at 18,000× g for 15 min, the supernatant was transferred to a new tube and evaporated to dryness under a stream of nitrogen. The residue was reconstituted in 100 μl of mobile phase (acetonitrile: 0.1% formic acid=50:50) and then centrifuged at 18,000×g for 15 minutes. Ten μl of supernatant was injected into the UPLC-MS/MS for quantitative analysis. The linear concentration range was 6.5-3200 ng/ml for both serum and epithelial lining fluid samples. The intra-day and inter-day variance was less than […] for all the components in both serum and epithelial lining fluid. The concentration of drug in epithelial lining fluid (CELF) was corrected using the equation: CELF=CBALF× Ureaserum/UreaBALF, where UreaBALF and Ureaserum were the concentrations of urea in bronchoalveolar lavage fluid (BALF) and serum, respectively (18).
(§3) Concentrations of urea in serum and BALF samples were quantified with a commercially available assay kit (Quantichrom™ Urea Assay kit, BioAssay System, Hayward, Calif.) and measured on a Synergy2 microplate reader (BioTek Instrument, Winooski, Vt.). Drug exposures observed in both serum and epithelial lining fluid were normalized by the specific dose of each batch of liposomes to account for the variances among different pharmacokinetic experiments. Naïve data averaging was used; the best-fit pharmacokinetic parameters as well as drug exposure in serum and ELF were calculated by WinNonlin 3.3 (Pharsight Corporation, Mountain View, Calif.) using a one-compartment model and non-compartmental analysis, respectively. Statistical differences between liposome and aqueous solution were determined by Mann-Whitney test at the significance level of p≤0.05.

[3] = Epithelial lining fluid (ELF) pharmacokinetics after intravenous polymyxin B liposomes or aqueous solution (USP); assay type: in vivo, Swiss Webster mice; settings: for AUC(0-t): female, ND4 Swiss Webster, n = 4, read-out: AUC0-6 h, epithelial lining fluid
Experimental: as §1, §2, §3

[4] = test system: proximal tubules; assay: Electron microscopy of maleate-treated kidney sections; assay type: in vivo; settings: rats
Experimental: For morphological studies, one animal was sacrificed at 3 h and another at 14 days after maleate administration to collect the kidneys. The harvested kidneys were submitted for electron microscopic studies. Tissue samples from both renal cortical and medullary regions were fixed in 2% glutaraldehyde at 4° C. overnight, followed by additional fixation in osmium tetroxide. The renal tissue was dehydrated and embedded in epoxy resin. Approximately 1-μm pilot sections were stained with toluidine for selection of the areas for further ultrastructural examination. Thin sections of these selected areas were cut and subjected to examination under a JEOL 300 electron microscope at 80 kV. The kidneys from two naive rats were harvested, processed in a similar fashion, and used as controls.

[5] = test system: Lrp2/megalin; assay: Urinary excretion of megalin after maleate administration (ELISA); assay type: in vivo; settings: rats, single 400 mg/kg intraperitoneal dose
Experimental: Three rats were housed individually in separate metabolic cages 24 h prior to maleate pretreatment. A single dose of 400 mg/kg of sodium maleate was given intraperitoneally; this was previously reported to induce reversible ultrastructural modifications in the apical brush border membrane of proximal renal tubules (34). To study megalin urinary excretion, cumulative urine was collected daily from day −1 to day 15. The urine samples were spun down to remove particulate matter. Subsequently, the urine samples were aliquoted and stored at −80° C. prior to analysis. The samples were thawed, and urinary Lrp2/megalin concentrations were quantitatively measured using a commercially available ELISA kit for megalin. For each animal, the daily megalin concentrations were expressed as a normalized ratio to the baseline megalin value.

[6] = mouse, in vivo, iv, 3 mg/kg, AUC0-6 h, kidney
[7] = female, ND4 Swiss Webster, mouse, in vivo, iv

With CC[C@H](C)CCCCC(=O)N[C@@H](CCN)C(=O)N[C@H](C(=O)N[C@@H](CCN)C(=O)N[C@H]1CCNC(=O)[C@H]([C@@H](C)O)NC(=O)[C@H](CCN)NC(=O)[C@H](CCN)NC(=O)[C@H](CC(C)C)NC(=O)[C@@H](Cc2ccccc2)NC(=O)[C@H](CCN)NC1=O)[C@@H](C)O [PB1, polymyxin B1] (X1-[Dab]T[Dab][Dab][Dab][dF]L[Dab][Dab]T; lactam 4-C) the AUC(0-t) ([1]; mouse, in vivo, iv, 3 mg/kg, kidney, mice, IV 3 mg/kg polymyxin liposome, n = 24, read-out: AUC0-6 h, kidney) was 28400 ng·h/mL, the AUC(0-t) ([1]; mouse, in vivo, iv, 3 mg/kg, kidney, mice, IV 3 mg/kg polymyxin solution (USP), n = 24, read-out: AUC0-6 h, kidney) was 34200 ng·h/mL and the “AUC ratio (liposome:solution), kidney” value ([1]; kidney, mice, IV 3 mg/kg) was 0.83. For the same molecule, the half-life ([2]; female, ND4 Swiss Webster, mouse, in vivo, 3 mg/kg, serum, mice, IV polymyxin B liposomes, one-compartment model, read-out: T1/2 (elimination half-life) (converted)) was 36 min, the AUC(0-t) ([2]; female, ND4 Swiss Webster, mouse, in vivo, iv, 3 mg/kg, serum, mice, IV polymyxin B liposomes approx. 3 mg/kg) was 4770 ng·h/mL and the AUC(0-t) ([2]; female, ND4 Swiss Webster, mouse, in vivo, iv, 3 mg/kg, serum, mice, IV polymyxin B solution (USP) approx. 3 mg/kg) was 2760 ng·h/mL. For the same molecule, the total clearance ([2]; mice, IV aqueous solution approx. 3 mg/kg) was 1.4±0.5 I/h/kg, the total clearance ([2]; mice, IV liposomal formulation approx. 3 mg/kg) was 0.6±0.3 I/h/kg and the “AUC ratio (liposome:solution), epithelial lining fluid” value (“AUC ratio … epithelial lining fluid” below) ([3]; ELF, mice, IV 3 mg/kg) was 6.21. It also gave an AUC(0-t) ([3]; mouse, in vivo, iv, 3 mg/kg, ELF, mice, IV 3 mg/kg polymyxin liposome) of 9750 ng·h/mL and an AUC(0-t) ([3]; mouse, in vivo, iv, 3 mg/kg, ELF, mice, IV 3 mg/kg polymyxin solution (USP)) of 1570 ng·h/mL.

In the case of CC(C)CCCCC(=O)N[C@@H](CCN)C(=O)N[C@H](C(=O)N[C@@H](CCN)C(=O)N[C@H]1CCNC(=O)[C@H]([C@@H](C)O)NC(=O)[C@H](CCN)NC(=O)[C@H](CCN)NC(=O)[C@H](CC(C)C)NC(=O)[C@@H](Cc2ccccc2)NC(=O)[C@H](CCN)NC1=O)[C@@H](C)O [PB2, polymyxin B2] ({Heptanoyl(6-Me)}-[Dab]T[Dab][Dab][Dab][dF]L[Dab][Dab]T; lactam 4-C (inferred)), the “AUC0-6 h, kidney” value ([1]; mouse, in vivo, iv, 3 mg/kg) is reported as 12240 ng·h/mL, the AUC(0-t) [1, 6] is reported as 9440 ng·h/mL and the “AUC ratio (liposome:solution), kidney” value ([1]; mouse, in vivo, iv, 3 mg/kg) is reported as 0.77. The clearance [2, 7] was 5.14 mL/min/kg, the half-life [2, 7] was 26.4 min and the “Cl (clearance)” value ([2]; mouse, in vivo, iv) was 14.998 mL/min/kg. For the same molecule, the “T1/2 (elimination half-life)” value ([2]; mouse, in vivo, iv) was 12.6 min, the “Vss (volume of distribution at steady state)” value ([2]; mouse, in vivo, iv) was 0.27474 L/kg and the “time post-dose up to which the component could be quantified in ELF” value (“time post-dose up” for short) ([3]; mouse, in vivo, iv) was “up to 2 h”. The “AUC ratio … epithelial lining fluid” value ([3]; mouse, in vivo, iv, 3 mg/kg) was 11.10.

For CCCCCCCC(=O)N[C@@H](CCN)C(=O)N[C@H](C(=O)N[C@@H](CCN)C(=O)N[C@H]1CCNC(=O)[C@H]([C@@H](C)O)NC(=O)[C@H](CCN)NC(=O)[C@H](CCN)NC(=O)[C@H](CC(C)C)NC(=O)[C@@H](Cc2ccccc2)NC(=O)[C@H](CCN)NC1=O)[C@@H](C)O [PB3, polymyxin B3] (Octanoyl-[Dab]T[Dab][Dab][Dab][dF]L[Dab][Dab]T; lactam 4-C), the “AUC ratio (liposome:solution), kidney” value ([1]; mouse, in vivo, iv, 3 mg/kg) was 0.37, the half-life [2, 7] was 18 min and the “T1/2 (elimination half-life)” value ([2]; mouse, in vivo, iv) was 16.8 min. The “time post-dose up” value ([3]; mouse, in vivo, iv) was “up to 2 h” and the “AUC ratio … epithelial lining fluid” value ([3]; mouse, in vivo, iv, 3 mg/kg) was 4.92.

For CC[C@H](C)CCCCC(=O)N[C@@H](CCN)C(=O)N[C@H](C(=O)N[C@@H](CCN)C(=O)N[C@H]1CCNC(=O)[C@H]([C@@H](C)O)NC(=O)[C@H](CCN)NC(=O)[C@H](CCN)NC(=O)[C@H]([C@@H](C)CC)NC(=O)[C@@H](Cc2ccccc2)NC(=O)[C@H](CCN)NC1=O)[C@@H](C)O [ile-PB1, isoleucine polymyxin B1] (X1-[Dab]T[Dab][Dab][Dab][dF]I[Dab][Dab]T; lactam 4-C), the “AUC0-6 h, kidney” value ([1]; mouse, in vivo, iv, 3 mg/kg) was 4980 ng·h/mL, the AUC(0-t) [1, 6] was 4160 ng·h/mL and the “AUC ratio (liposome:solution), kidney” value ([1]; mouse, in vivo, iv, 3 mg/kg) was 0.84. For the same molecule, the half-life [2, 7] was 25.2 min, the “T1/2 (elimination half-life)” value ([2]; mouse, in vivo, iv) was 17.4 min and the “time post-dose up” value ([3]; mouse, in vivo, iv) was “up to 4 h”. The “AUC ratio … epithelial lining fluid” value ([3]; mouse, in vivo, iv, 3 mg/kg) was 4.55.

For O=C([O-])/C=C\C(=O)[O-].[Na+].[Na+] [maleate, Sodium maleate dibasic salt], the “electron microscopic findings in kidney” value ([4]; two weeks after 400 mg/kg intraperitoneally) was “no significant changes”, the “electron microscopic findings in kidney” value ([4]; within 3 h after 400 mg/kg intraperitoneally) was “morphological and ultrastructural changes in the proximal tubules” and the “elevation in the level of urinary megalin” value [5] was “approximately 20 times the baseline measurement”. For the same molecule, the “time until urinary megalin levels reverted to baseline” value [5] was “approximately 11 days”.
